From patent publication US20080221086A1, “Novel Inhibitors of Glutaminyl Cyclase” (PROBIODRUG AG, priority 2006, published 2008)
Where two headings read alike, the source gives them in different places.

Target: hQC (Homo sapiens, UniProt Q16769)
Experiment: Fluorometric assay of glutaminyl cyclase (QC) inhibition, H-Gln-βNA or H-Gln-AMC substrate
Format: biochemical
Summary of the method: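 Ki values were obtained by fitting progress curves to a competitive-inhibition equation, and the rapid screen used 4 mM inhibitor with substrate at 1 KM. Both readouts coupled pyroglutamyl aminopeptidase at pH 8.0 and 30° C: H-Gln-βNA at 0.2 mM (ex/em 320/410 nm) or H-Gln-AMC (380/460 nm).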

[1] = compound from preparative synthesis, purified by chromatography, fluorescent assay, read-out: IC50 hQC

hQC, sequence (Q16769 29-361): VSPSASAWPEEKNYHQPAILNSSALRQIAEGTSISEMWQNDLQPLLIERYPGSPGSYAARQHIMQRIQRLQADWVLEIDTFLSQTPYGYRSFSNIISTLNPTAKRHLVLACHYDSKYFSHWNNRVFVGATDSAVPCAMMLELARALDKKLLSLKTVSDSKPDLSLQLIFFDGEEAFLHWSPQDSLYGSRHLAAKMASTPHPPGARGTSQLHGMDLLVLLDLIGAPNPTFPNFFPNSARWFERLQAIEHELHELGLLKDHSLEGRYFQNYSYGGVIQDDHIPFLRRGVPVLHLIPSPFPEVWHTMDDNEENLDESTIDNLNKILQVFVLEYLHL

Compound `O=C(C/N=C1\NC(=S)N(c2ccc3[nH]cnc3c2)C1c1c(F)ccc(Cl)c1F)N1CCCC(O)C1` (stereo not drawn) [Compound 134, 2-(1-(1H-benzo[d]imidazol-5-yl)-5-(3-chloro-2,6-difluorophenyl)-2-thioxoimidazolidin-4-ylideneamino)-1-(3-hydroxypiperidin-1-yl)ethanone] has an IC50 (read-out: IC50) of 2.2 µM.
In the case of `O=C(C/N=C1\NC(=O)N(c2ccc3[nH]cnc3c2)C1c1ccccc1Cl)N1CCSCC1` (stereo not drawn) [Compound 135, 1-(1H-Benzoimidazol-5-yl)-5-(2-chloro-phenyl)-4-2-oxo-2-thiomorpholin-4-yl-ethylimino-imidazolidin-2-one], the IC50 (read-out: IC50) is reported as 5.8 µM.
`CCc1ccccc1C1/C(=N/C2CCCc3ccccc32)NC(=S)N1c1ccc2[nH]cnc2c1` (stereo not drawn) [Compound 136, 1-(1H-Benzoimidazol-5-yl)-5-(2-ethyl-phenyl)-4-1,2,3,4-tetrahydro-naphthalen-1-yliminoimidazolidine-2-thione] gave an IC50 (read-out: IC50) of 6.7 µM.
For `S=C1NC(=NCCc2cccs2)C(c2cc3c(cc2Br)OCO3)N1c1ccc2nc[nH]c2c1` (stereo not drawn) [Compound 137, 1-(3H-Benzoimidazol-5-yl)-5-(6-bromo-benzo1,3dioxol-5-yl)-4-2-thiophen-2-yl-ethylimino-imidazolidin-2-thione], the IC50 (read-out: IC50) was 4 µM.
In the case of `CC(/N=C1\NC(=O)N(c2ccc3[nH]cnc3c2)C1c1ccccc1C(F)(F)F)C(C)(C)C` (stereo not drawn) [Compound 138, 1-(1H-Benzoimidazol-5-yl)-5-(2-trifluoromethyl-phenyl)-4-1,2,2-trimethyl-propylimino-imidazolidin-2-one], the IC50 [1] is reported as 1.23 µM and the IC50 (read-out: IC50) is reported as 0.004 µM.
With `S=C1N/C(=N\C(Cc2ccccc2)c2ccccc2)C(c2cc3c(cc2Br)OCO3)N1c1ccc2[nH]cnc2c1` (stereo not drawn) [Compound 139, 1-(1H-Benzoimidazol-5-yl)-5-(6-bromo-benzo1,3dioxol-5-yl)-4-1,2-diphenyl-ethylimino-imidazolidine-2-thione] the IC50 (read-out: IC50) was 9.4 µM.
`Cc1ccc(C2/C(=N\c3cccc(C#N)c3)NC(=S)N2c2ccc3[nH]cnc3c2)c(C)c1` (stereo not drawn) [Compound 140, 3-(1-(1H-benzo[d]imidazol-5-yl)-5-(2,4-dimethylphenyl)-2-thioxoimidazolidin-4-ylideneamino)benzo-nitrile] was tested, and the IC50 (read-out: IC50) was 8.5 µM.
In the case of `C/N=C1/NC(=S)N(c2ccc3[nH]cnc3c2)C1c1ccc(C)cc1` (stereo not drawn) [Compound 141, 1-(1H-Benzoimidazol-5-yl)-4-methylimino-5-p-tolyl-imidazolidine-2-thione], the IC50 (read-out: IC50) is reported as 9.4 µM.
Work on `Cc1nc[nH]c1C1/C(=N/C2CCCCC2O)NC(=O)N1c1ccc2[nH]cnc2c1` (stereo not drawn) [Compound 142, 3-(1H-Benzoimidazol-5-yl)-5-2-hydroxy-cyclohexylimino-5′-methyl-1,3,4,5-tetrahydro-3′H-4,4′biimidazolyl-2-one] yielded an IC50 (read-out: IC50) of 8.5 µM.
In the case of `O=C(C/N=C1\NC(=S)N(c2ccc3[nH]cnc3c2)C1c1cc2c(cc1Br)OCO2)NN1CCCCC1` (stereo not drawn) [Compound 143], the IC50 (read-out: IC50) is reported as 2.2 µM.
`O=C(C/N=C1\NC(=S)N(c2ccc3[nH]cnc3c2)C1c1ccccc1C(F)(F)F)N1CCCCC1` (stereo not drawn) [Compound 144, 2-1-(1H-Benzoimidazol-5-yl)-2-thioxo-5-(2-trifluoromethyl-phenyl)-imidazolidin-(4Z)-ylideneamino-1-piperidin-1-yl-ethanone] was tested, and the IC50 (read-out: IC50) was 1.3 µM.
Work on `Cc1ccc(C2/C(=N\Cc3ccc4[nH]ccc4c3)NC(=S)N2c2ccc3[nH]cnc3c2)cc1` (stereo not drawn) [Compound 145, 1-(1H-Benzoimidazol-5-yl)-4-1H-indol-5-ylmethylimino-5-p-tolyl-imidazolidine-2-thione] yielded an IC50 (read-out: IC50) of 4 µM.
In the case of `S=C1N/C(=N\C2CCc3ccccc32)C(c2ccc(Br)cc2)N1c1ccc2[nH]cnc2c1` (stereo not drawn) [Compound 146, 1-(1H-Benzoimidazol-5-yl)-5-(4-bromo-phenyl)-4-indan-1-ylimino-imidazolidine-2-thione], the IC50 (read-out: IC50) is reported as 1.3 µM.
For `O=C1CCCN1CCC/N=C1\NC(=S)N(c2ccc3[nH]cnc3c2)C1c1ccc(Br)cc1` (stereo not drawn) [Compound 147, 1-{3-1-(3H-Benzoimidazol-5-yl)-5-(4-bromo-phenyl)-2-thioxo-imidazolidin-(4Z)-ylideneamino-propyl}-pyrrolidin-2-one], the IC50 (read-out: IC50) was 5.8 µM.
Compound `O=C1N/C(=N/Cn2nnc3ccccc32)C(c2cc(F)cc(F)c2)N1c1ccc2[nH]cnc2c1` (stereo not drawn) [Compound 148, 1-(1H-Benzoimidazol-5-yl)-4-benzotriazol-1-ylmethylimino-5-(3,5-difluoro-phenyl)-imidazolidin-2-one] has an IC50 (read-out: IC50) of 3.1 µM.
Compound `FC(F)(F)c1ccccc1/N=C1\NC(=S)N(c2ccc3[nH]cnc3c2)C1C1=CCCCC1` (stereo not drawn) [Compound 149, 1-(1H-Benzoimidazol-5-yl)-5-cyclohex-1-enyl-4-2-trifluoromethyl-phenylimino-imidazolidine-2-thione] has an IC50 (read-out: IC50) of 6.7 µM.
Work on `CC(CC1/C(=N/C2CCCc3ccccc32)NC(=S)N1c1ccc2[nH]cnc2c1)CC(C)(C)C` (stereo not drawn) [Compound 150, 1-(1H-Benzoimidazol-5-yl)-4-1,2,3,4-tetrahydro-naphthalen-1-ylimino-5-(2,4,4-trimethyl-pentyl)-imidazolidine-2-thione] yielded an IC50 (read-out: IC50) of 6.7 µM.
With `CSc1ccc(C2/C(=N\Cn3nnc4ccccc43)NC(=S)N2c2ccc3[nH]cnc3c2)cc1` (stereo not drawn) [Compound 151, 1-(1H-Benzoimidazol-5-yl)-4-benzotriazol-1-ylmethylimino-5-(4-methylsulfanyl-phenyl)-imidazolidine-2-thione] the IC50 (read-out: IC50) was 0.004 µM.
Compound `O=C(C/N=C1\C(c2cccc(Br)c2)NC(=S)N1c1ccc2[nH]cnc2c1)N1CCSCC1` (stereo not drawn) [Compound 152, 2-(3-(1H-benzo[d]imidazol-5-yl)-5-(3-bromophenyl)-2-thioxoimidazolidin-4-ylideneamino)-1-thiomorpholinoetha-none] has an IC50 (read-out: IC50) of 2.2 µM.
`O=C1NC(c2cc(F)cc(F)c2)/C(=N\CC(O)c2ccccc2)N1c1ccc2[nH]cnc2c1` (stereo not drawn) [Compound 153, 1-(1H-Benzoimidazol-5-yl)-5-(3,5-difluoro-phenyl)-4-2-hydroxy-2-phenyl-ethylimino-imidazolidin-2-one] showed an IC50 (read-out: IC50) of 0.4 µM.
For `O=C(C/N=C1\NC(=O)N(c2ccc3[nH]cnc3c2)C1c1c(F)ccc(Cl)c1F)N1CCCC(O)C1` (stereo not drawn) [Compound 154, 1-(1H-Benzoimidazol-5-yl)-5-(3-chloro-2,6-difluoro-phenyl)-4-2-(3-hydroxy-piperidin-1-yl)-2-oxo-ethylimino-imidazolidin-2-one], the IC50 (read-out: IC50) was 0.4 µM.
With `O=C1CCCN1CCC/N=C1/NC(=O)N(c2ccc3[nH]cnc3c2)C1c1ccc2nsnc2c1` (stereo not drawn) [Compound 155, 1-(1H-Benzoimidazol-5-yl)-5-benzo[c][1,2,5]thiadiazol-5-yl-4-3-(2-oxo-pyrrolidin-1-yl)-propylimino-imidazolidin-2-one] the IC50 (read-out: IC50) was 0.004 µM.
`Cc1ccc(C2/C(=N/C(C)C)NC(=O)N2c2ccc3[nH]cnc3c2)c(C)c1` (stereo not drawn) [Compound 156, 1-(1H-Benzoimidazol-5-yl)-5-(2,4-dimethyl-phenyl)-4-isopropylimino-imidazolidin-2-one] showed an IC50 (read-out: IC50) of 0.4 µM.
`CN(C)CCCN=C1NC(=O)N(c2ccc3[nH]cnc3c2)C1c1ccc2ccccc2c1` (stereo not drawn) [Compound 157, 1-(1H-Benzoimidazol-5-yl)-4-3-dimethylamino-propylimino-5-naphthalen-2-yl-imidazolidin-2-one] showed an IC50 (read-out: IC50) of 5.8 µM.
Work on `O=C1N/C(=N\C2CC2)C(c2ccccc2C(F)(F)F)N1c1ccc2[nH]cnc2c1` (stereo not drawn) [Compound 158, 1-(1H-Benzoimidazol-5-yl)-4-cyclopropylimino-5-(2-trifluoromethyl-phenyl)-imidazolidin-2-one] yielded an IC50 (read-out: IC50) of 4.9 µM.
`C/N=C1/NC(=O)N(c2ccc3[nH]cnc3c2)C1c1ccc2ccccc2c1` (stereo not drawn) [Compound 159, 1-(1H-Benzoimidazol-5-yl)-4-methylimino-5-naphthalen-2-yl-imidazolidin-2-one] was tested, and the IC50 (read-out: IC50) was 0.004 µM.
Compound `CCc1ccccc1C1/C(=N/C2CCCc3ccccc32)NC(=O)N1c1ccc2[nH]cnc2c1` (stereo not drawn) [Compound 160, 1-(1H-Benzoimidazol-5-yl)-5-(2-ethyl-phenyl)-4-1,2,3,4-tetrahydro-naphthalen-1-ylimino-imidazolidin-2-one] has an IC50 (read-out: IC50) of 2.2 µM.
`S=C1N/C(=N\C2CCCc3ccccc32)C(c2cccc(Br)c2)N1c1ccc2[nH]cnc2c1` (stereo not drawn) [Compound 161, 1-(1H-Benzoimidazol-5-yl)-5-(3-bromo-phenyl)-4-1,2,3,4-tetrahydro-naphthalen-1-ylimino-imidazolidine-2-thione] was tested, and the IC50 (read-out: IC50) was 5.8 µM.
In the case of `O=C1N/C(=N/Cc2ccccc2)C(c2ccc(Cl)cc2)N1c1ccc2[nH]cnc2c1` (stereo not drawn) [Compound 162, 1-(1H-Benzoimidazol-5-yl)-4-benzylimino-5-(4-chloro-phenyl)-imidazolidin-2-one], the IC50 [1] is reported as 0.0195 µM and the IC50 (read-out: IC50) is reported as 0.004 µM.
`O=C1N/C(=N/CCCN2CCOCC2)C(c2ccc3[nH]ccc3c2)N1c1ccc2[nH]cnc2c1` (stereo not drawn) [Compound 163, 1-(1H-Benzoimidazol-5-yl)-5-(1H-indol-5-yl)-4-3-morpholin-4-yl-propylimino-imidazolidin-2-one] showed an IC50 (read-out: IC50) of 0.004 µM.
`S=C1N/C(=N\C(Cc2ccccc2)c2ccccc2)C(c2cccc(Br)c2)N1c1ccc2[nH]cnc2c1` (stereo not drawn) [Compound 164, 1-(1H-Benzoimidazol-5-yl)-5-(3-bromo-phenyl)-4-1,2-diphenyl-ethylimino-imidazolidine-2-thione] was tested, and the IC50 (read-out: IC50) was 9.4 µM.
`CC1=CC(C)C(C2/C(=N/C(C)C(C)(C)C)NC(=S)N2c2ccc3nc[nH]c3c2)CC1` (stereo not drawn) [Compound 165, 1-(3H-Benzoimidazol-5-yl)-5-(2,4-dimethyl-cyclohex-3-enyl)-4-1,2,2-trimethyl-propylimino-imidazolidine-2-thione] was tested, and the IC50 (read-out: IC50) was 7.6 µM.
With `O=C1CCCN1CCC/N=C1/NC(=O)N(c2ccc3[nH]cnc3c2)C1c1cc2ccccc2s1` (stereo not drawn) [Compound 166, 5-Benzobthiophen-2-yl-1-(1H-benzoimidazol-5-yl)-4-3-(2-oxo-pyrrolidin-1-yl)-propylimino-imidazolidin-2-one] the IC50 (read-out: IC50) was 0.4 µM.
For `C/N=C1/NC(=O)N(c2ccc3[nH]cnc3c2)C1c1ccc(C)cc1` (stereo not drawn) [Compound 167, 1-(1H-Benzoimidazol-5-yl)-4-methylimino-5-p-tolyl-imidazolidin-2-one], the IC50 (read-out: IC50) was 0.4 µM.
